Assay [1] concerns carragennan induced pleurisy. Put plainly: Carragennan Induced Pleurisy Test (CIP). Type of assay: in vivo, Sprague-Dawley rats. As to conditions: Rattus norvegicus; rats, oral 10 mg/kg, 30 min before carrageenan; prostaglandin in pleural lavage at 4 h. As for the experimental part:
(§1) EIA Determination of Prostaglandins
(§2) EIA reagents for prostaglandin determination were purchased from Perspective Diagnostics, Cambridge, Mass. PGE2 levels in lavage fluids were determined after the samples were dried under nitrogen and reconstituted with assay buffer. PGE2 levels in enzyme assays or cell culture media were measured against standards prepared in the same milieu. The immunoassays were conducted as recommended by the manufacturer. The EIA was conducted in 96 well microtiter plates (Nunc Roskilde, Denmark) and optical density measured using a microplate reader (Vmax, Molecular Devices Corp., Menlo Park, Calif.).
Carragennan Induced Pleurisy Test (CIP)
Four hours after carrageenan injection, the animals were euthanized and their pleural cavities lavaged with ice cold saline. […] Prostaglandin levels in the methanol lavage fluid were then determined by EIA.

Assay [2] has as its target T1, recombinant human PGHS-1 (COX-1) (Homo sapiens, UniProt P23219).
T1 construct: made in house; host or cells: baculovirus/Sf9 insect cells (microsomes)
Briefly: Recombinant human PGHS-1 enzyme assay (PGE2 production by EIA). In kind it is biochemical. As to conditions: 100 uM compound; 60 min preincubation; 10 uM arachidonic acid; read-out: COX-1 (% inhib. @ 100 uM). As for the experimental part: Recombinant Human PGHS-l and -2 Enzyme Assays:
The reaction was allowed to run for 2.5 minutes at room temperature prior to quenching with HCl and neutralization with NaOH. PGE2 production in the presence and absence of the drug was determined by Enzyme ImmunoAssay ("EIA") analysis as described below.
as §1, §2

The target of assay [3] is T2, recombinant human PGHS-2 (COX-2) (Homo sapiens, UniProt P35354).
T2 construct: made in house; host or cells: baculovirus/Sf9 insect cells (microsomes)
T2 sequence (P35354 18-604): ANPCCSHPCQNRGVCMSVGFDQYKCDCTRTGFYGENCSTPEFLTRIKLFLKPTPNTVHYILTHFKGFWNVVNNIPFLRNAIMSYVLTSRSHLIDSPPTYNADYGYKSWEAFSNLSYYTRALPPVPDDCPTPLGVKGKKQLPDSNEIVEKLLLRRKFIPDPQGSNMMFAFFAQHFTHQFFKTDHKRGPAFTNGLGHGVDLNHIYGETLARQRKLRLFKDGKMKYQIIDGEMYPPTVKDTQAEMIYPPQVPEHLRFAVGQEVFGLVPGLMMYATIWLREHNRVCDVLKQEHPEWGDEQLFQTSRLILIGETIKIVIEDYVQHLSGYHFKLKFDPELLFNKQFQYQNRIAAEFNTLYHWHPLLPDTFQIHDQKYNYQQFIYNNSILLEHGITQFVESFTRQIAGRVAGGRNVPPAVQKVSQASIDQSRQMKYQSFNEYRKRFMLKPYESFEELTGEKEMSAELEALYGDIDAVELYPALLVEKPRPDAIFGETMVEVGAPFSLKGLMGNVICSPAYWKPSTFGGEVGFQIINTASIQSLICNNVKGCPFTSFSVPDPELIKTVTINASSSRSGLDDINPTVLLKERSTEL
Briefly: Recombinant human PGHS-2 enzyme assay (PGE2 production by EIA). In kind it is biochemical. To be noted: 60 min preincubation, 10 uM arachidonic acid; for inhibition at 0.1 µM: 100 nM compound. As for the experimental part: Recombinant Human PGHS-l and -2 Enzyme Assays: A compound of the invention was dissolved in DMSO (3.3%v/v) and preincubated with microsomes from recombinant human PGHS-1 and-2 expressed in the baculovirus/Sf9 cell system (Gierse, J. […] The reaction was allowed to run for 2.5 minutes at room temperature prior to quenching with HCl and neutralization with NaOH. PGE2 production in the presence and absence of the drug was determined by Enzyme ImmunoAssay ("EIA") analysis as described below. EIA Determination of Prostaglandins EIA reagents for prostaglandin determination were purchased from Perspective Diagnostics, Cambridge, Mass. PGE2 levels in lavage fluids were determined after the samples were dried under nitrogen and reconstituted with assay buffer. PGE2 levels in enzyme assays or cell culture media were measured against standards prepared in the same milieu. The immunoassays were conducted as recommended by the manufacturer. The EIA was conducted in 96 well microtiter plates (Nunc Roskilde, Denmark) and optical density measured using a microplate reader (Vmax, Molecular Devices Corp., Menlo Park, Calif.).

Counter-ions that a name gives are not always drawn.

T1 sequence (P23219 24-599): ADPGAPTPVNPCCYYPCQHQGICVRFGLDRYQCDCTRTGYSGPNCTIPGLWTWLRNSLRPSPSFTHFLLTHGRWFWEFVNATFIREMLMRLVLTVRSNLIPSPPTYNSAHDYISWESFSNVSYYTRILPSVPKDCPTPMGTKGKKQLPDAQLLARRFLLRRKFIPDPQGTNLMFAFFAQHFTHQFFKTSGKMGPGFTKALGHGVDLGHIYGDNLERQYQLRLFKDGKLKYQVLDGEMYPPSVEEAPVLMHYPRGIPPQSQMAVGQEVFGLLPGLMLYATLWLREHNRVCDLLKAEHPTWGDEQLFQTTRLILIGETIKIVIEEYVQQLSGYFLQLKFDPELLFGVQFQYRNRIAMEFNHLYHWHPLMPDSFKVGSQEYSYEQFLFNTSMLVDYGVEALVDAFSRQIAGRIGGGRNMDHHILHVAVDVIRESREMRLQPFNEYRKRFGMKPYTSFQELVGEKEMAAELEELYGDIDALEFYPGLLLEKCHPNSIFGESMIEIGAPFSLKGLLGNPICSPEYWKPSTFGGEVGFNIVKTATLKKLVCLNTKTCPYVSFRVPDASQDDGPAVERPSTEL

The inhibition in vivo is the percentage by which the read-out fell short of the control. A higher inhibition in vivo goes with a response far below the control. One may read the IC50 as the concentration needed to halve the response being measured. Regarding `COc1ccc2c(c1)c(Cc1nc(-c3ccc(Br)cc3)cs1)c(C)n2C(=O)c1ccc(Cl)cc1` [Example 1, 3-[4-(4-bromophenyl)thiazol-2-ylmethyl]-1-(4-Chlorobenzoyl)-5-methoxy-2-methylindole], the inhibition in vivo at 10 mg/kg in assay [1] was determined as 43%. Further, the inhibition at 100 µM in assay [2] stood at 32%. The IC50 in assay [3] was 0.3 nM.
Molecule `COc1ccc2c(c1)c(Cc1nc(-c3ccc(F)cc3F)cs1)c(C)n2C(=O)c1ccc(Cl)cc1` [Example 2, 1-(4-Chlorobenzoyl)-3-[4-(2.4-difluorophenyl)thiazol-2-ylmethyl]-5-methoxy-2-methylindole] had an inhibition in vivo at 10 mg/kg in assay [1] of 16%. Further, in assay [2], the inhibition at 100 µM amounted to 20%. The inhibition at 0.1 µM in assay [3] was 82%.
For the molecule `COc1ccc2c(c1)c(Cc1nc(-c3ccc4ccccc4c3)cs1)c(C)n2C(=O)c1ccc(Cl)cc1` [Example 3, 1-(4-Chlorobenzoyl)-5-methoxy-2-methyl-3-[4-(2-naphthyl)thiazol-2-ylmethyl]indole], in assay [2], the inhibition at 100 µM was found to be 21%. The IC50 in assay [3] was 7 nM.
Consider `COc1ccc2c(c1)c(Cc1nc(-c3cccc(Br)c3)cs1)c(C)n2C(=O)c1ccc(Cl)cc1` [Example 4, 3-[4-(3-bromophenyl)thiazol-2-ylmethyl]-1-(4-Chlorobenzoyl)-5-methoxy-2-methylindole], for which 10 mg/kg produced 24% inhibition in vivo in assay [1]. Also, in assay [2], the inhibition at 100 µM stood at 35%. In assay [3], the IC50 was 8 nM.
Consider `COc1ccc2c(c1)c(Cc1nc(-c3ccc(Cl)cc3)cs1)c(C)n2C(=O)c1ccc(Cl)cc1` [Example 5, 1-(4-Chlorobenzoyl)-3-[4-(4-Chlorophenyl)thiazol-2-ylmethyl]-5-methoxy-2-methylindole], for which the inhibition at 100 µM in assay [2] was 16%. Moreover, in assay [3], the IC50 is 14 nM.
As to `COc1ccc2c(c1)c(Cc1nc(-c3ccc([N+](=O)[O-])cc3)cs1)c(C)n2C(=O)c1ccc(Cl)cc1` [Example 6, 1-(4-Chlorobenzoyl)-5-methoxy-2-methyl-3-[4-(4-nitrophenyl)thiazol-2-ylmethyl]indole], the inhibition at 100 µM in assay [2] was determined as 26%. Besides, the IC50 in assay [3] was 12 nM.
Consider `COc1ccc2c(c1)c(Cc1nc(-c3csc4ccccc34)cs1)c(C)n2C(=O)c1ccc(Cl)cc1` [Example 7, 3-[4-(3-benzothienyl)thiazol-2-ylmethyl]-1-(4-Chlorobenzoyl)-5-methoxy-2-methylindole], for which, in assay [1], the inhibition in vivo at 10 mg/kg is 20%. Also, the inhibition at 100 µM in assay [2] is 23%. The IC50 in assay [3] turned out to be 1 nM.
On to `COc1ccc2c(c1)c(Cc1nc(-c3ccc(F)cc3)cs1)c(C)n2C(=O)c1ccc(Cl)cc1` [Example 8, 1-(4-Chlorobenzoyl)-3-[4-(4-fluorophenyl)thiazol-2-ylmethyl]-5-methoxy-2-methylindole], for which the inhibition at 100 µM in assay [2] stood at 36%. For the same molecule, in assay [3], the IC50 worked out at 12 nM.
With `COc1ccc2c(c1)c(Cc1nc(-c3ccc(S(C)(=O)=O)cc3)cs1)c(C)n2C(=O)c1ccc(Cl)cc1` [Example 9, 1-(4-Chlorobenzoyl)-3-[4-(4-methanesulfonylphenyl)thiazol-2-ylmethyl]-5-methoxy-2-methylindole hydrobromide salt], the inhibition at 100 µM in assay [2] amounted to 40%. The IC50 in assay [3] was 60 nM.
As for `COc1ccc2c(c1)c(Cc1nc(-c3cccc([N+](=O)[O-])c3)cs1)c(C)n2C(=O)c1ccc(Cl)cc1` [Example 10, 1-(4-Chlorobenzoyl)-5-methoxy-2-methyl-3-[4-(3-nitrophenyl)thiazol-2-ylmethyl]indole], the inhibition at 100 µM in assay [2] came to 31%. The inhibition at 0.1 µM in assay [3] is 85%.
In assay [1], `COc1ccc2c(c1)c(Cc1nc(-c3ccc(O)c([N+](=O)[O-])c3)cs1)c(C)n2C(=O)c1ccc(Cl)cc1` [Example 11, 1-(4-Chlorobenzoyl)-3-[4-(4-hydroxy-3-nitrophenyl)thiazol-2-ylmethyl]-5-methoxy-2-methylindole] came in with an inhibition in vivo at 10 mg/kg of 30%. For the same molecule, the inhibition at 100 µM in assay [2] was determined as 23%. Moreover, in assay [3], the inhibition at 0.1 µM is 48%.
Take `COc1ccc2c(c1)c(Cc1csc(-c3cccnc3)n1)c(C)n2C(=O)c1ccc(Cl)cc1` [Example 12, 1-(4-Chlorobenzoyl)-5-methoxy-2-methyl-3-[2-(3-pyridyl)thiazol-4-ylmethyl]indole]: the inhibition at 100 µM in assay [2] is 40%. Besides, the IC50 in assay [3] amounted to 20 nM.
Turning to `COc1ccc2c(c1)c(Cc1csc(-c3ccncc3)n1)c(C)n2C(=O)c1ccc(Cl)cc1` [Example 13, 1-(4-Chlorobenzoyl)-5-methoxy-2-methyl-3-[2-(4-pyridyl)thiazol-4-ylmethyl]indole], testing at 10 mg/kg in assay [1] gave an inhibition in vivo of 14%. In addition, in assay [2], the inhibition at 100 µM is 49%. In addition, the inhibition at 0.1 µM in assay [3] is 77%.
`COc1ccc2c(c1)c(Cc1nc(-c3ccc(Cl)cc3)cs1)c(C)n2Cc1ccc(Br)cc1` [Example 14, 1-(4-bromobenzyl)-3-[4-(4-Chlorophenyl)thiazol-2-ylmethyl]-5-methoxy-2-methylindole] gave an inhibition in vivo at 10 mg/kg in assay [1] of 36%. Further, in assay [2], the inhibition at 100 µM was 15%. In addition, in assay [3], the IC50 was 7 nM.
With `COc1ccc2c(c1)c(Cc1nc(-c3ccc(Br)cc3)cs1)c(C)n2Cc1ccc(Br)cc1` [Example 15, 1-(4-bromobenzyl)-3-[4-(4-bromophenyl)thiazol-2-ylmethyl]-5-methoxy-2-methylindole], the inhibition at 100 µM in assay [2] came out at 15%. Besides, the IC50 in assay [3] came out at 30 nM.
As to `COc1ccc2c(c1)c(Cc1nc(-c3ccc([N+](=O)[O-])cc3)cs1)c(C)n2Cc1ccc(Br)cc1` [Example 16, 1-(4-bromobenzyl)-5-methoxy-2-methyl-3-[4-(4-nitrophenyl)thiazol-2-ylmethyl]indole], testing at 10 mg/kg in assay [1] gave an inhibition in vivo of 31%. The inhibition at 100 µM in assay [2] was 21%. The IC50 in assay [3] worked out at 7 nM.

These data come from patent US5811425A, “Heterocyclic compounds as COX-2 inhibitors” (Abbott Laboratories, priority 1997, dated 1998).
